Measured values published in patent publication US20110319484A1, “NEUROPROTECTIVE COMPOUNDS” (Parque Tecnologico de Ciencias de la Salud, priority 2009, published 2011).

Legend:
[1] = system: human neuroblastoma SK-N-MC cells; test: Protection against neuronal death induced by apoptosis (camptothecin), WST-1 test; format: cell-based; settings: camptothecin 20 nM, 22 h, at 10 μg/ml, protection at 4, 10 and 40 μg/ml
Experimental: To that end, an assay was performed on human neuroblastoma SK-N-MC cells in culture from the ATCC (HTB-10); in all cases strict rules of sterility were followed and the manipulation was performed in class II biological safety cabinets following European standard EN 12469. The cells were maintained in MEM culture medium supplemented with 1 mM sodium pyruvate, 2 mM L-glutamine, 0.1 mM non-essential amino acids, 0.05 mg/ml gentamicin and 10% fetal bovine serum.
The inhibition caused by the compound (1S,3R,7S,8S,8aR)-1,2,3,7,8,8a-hexahydro-3,7-dimethyl-8-[2-[(2R,4R)-tetrahydro-4-hydroxy-6-oxo-2H-pyran-2-yl]ethyl-1-naphthalenyl 2-methylpropanoate (NST0004) of cell death caused by treatment with camptothecin (Campt), which inhibits the topoisomerase I enzyme by preventing duplication of the DNA, which triggers apoptic cell death, was analyzed. […]
The cells were incubated (at 37° C. and 5% CO2) with these treatments for 22 h, after which time the WST-1 reagent (Roche) was added. […] The metabolically active (live) cells reduce tetrazolium salt to formazan by means of the succinate-tetrazolium reductase system (of the mitochondrial respiratory chain) and the formazan which is formed can be detected colorimetrically since it has an absorbance of 440 nm. The reading was taken in a plate reader at 440 nm 2 hours after adding the reagent. […]

hippocampus of mice = test: Neuroprotection in the hippocampus of mice after kainate (histopathology); format: in vivo, mice (FVB/NHan); settings: KA 25 mg/kg i.p., NST0005 50 mg/kg i.p. daily, 2 days before and 7 days after KA
Experimental: All the animals included during the experimental process were 12-week old males of the FVB/NHan strain. The experiments were carried out strictly following the Guidance on the Operation of Animals (Scientific Procedures, Act. 1986). The animals had their respective quarantine period and were treated with maximum precaution to minimize possible contaminations for inoculations and handling.
Sixteen animals were used in this assay and the treatments were all carried out by intraperitoneal (i.p.) route with a volume of 100 μl, according to the following regimens: • i) PBS+PBS+PBS regimen: 4 animals were initially treated with PBS with a daily dose for 2 days, on the second day the animals were inoculated with a new dose of PBS and for the next 7 days with a daily dose of PBS. • ii) PBS+KA+PBS regimen: 6 animals were initially treated with PBS with a daily dose for 2 days, on the second day the animals were inoculated with a dose of kainate at 25 mg/kg and for the next 7 days with a daily dose of PBS. • iii) NST0005+KA+NST0005 regimen: 6 animals were initially treated with NST0005 with a daily dose of 50 mg/kg for 2 days, on the second day the animals were inoculated with a dose of kainate at 25 mg/kg and for the next 7 days with a daily dose of NST0005 at 50 mg/kg.
Once the treatment time of 7 days ended, the animals were sacrificed and the brains were dissected. The brain samples were processed and included in paraffin. Fluoro-Jade B® (FJB) fluorescent stain was used in 5 μm thick sections to analyze the neurodegeneration of the hippocampus.
Based on the neuroprotection results shown in the previous section, the inventors decided to investigate if the neuroprotective effect of NST0005 in the hippocampus of mice against the administration of kainate (KA) was accompanied by the protection of another sign of neuronal damage such as neuritic dystrophy. To that end, the same experimental scheme was used as in section 6.1. Once the treatment period of 7 days ended, the animals were sacrificed and the brains were dissected. The brain samples were processed and included in paraffin. Bright field immunohistochemistry of the microtubule-associated protein 2 (MAP2) was used in 5 μm thick sections to analyze the neuritic dystrophy of the hippocampus.
Based on the neuroprotection results shown in the previous sections, the inventors decided to investigate if the neuroprotective effect of NST0005 in the hippocampus of mice against the administration of kainate (KA) was accompanied by the inhibition of neuronal death by apoptosis. To that end, the same experimental scheme was used as in section 6.1. Once the treatment period of 7 days ended, the animals were sacrificed and the brains were dissected. The brain samples were processed and included in paraffin. […]

Structure (SMILES)	maximum reduction of the percentage of cell death relating to death caused by Camptothecin [1] [%]	neuritic dystrophy in the hippocampus (MAP2) (hippocampus of mice)	neurodegeneration in the hippocampus (Fluoro-Jade B) (hippocampus of mice)	neuronal death by apoptosis in the hippocampus (Acridine Orange) (hippocampus of mice)	neuronal death by necrosis in the hippocampus (hematoxylin and eosin) (hippocampus of mice)
CC(C)C(=O)O[C@H]1C[C@@H](C)C=C2C=C[C@H](C)[C@H](CC[C@@H]3C[C@@H](O)CC(=O)O3)[C@H]21 [NST0004]	43				
C[C@H]1C=C2C=C[C@H](C)[C@H](CC[C@@H]3C[C@@H](O)CC(=O)O3)[C@H]2[C@@H](OC(=O)C(C)(C)C)C1 [NST0005]		significantly prevents the neuritic dystrophy	completely protected against the neurodegeneration	prevents neuronal damage, neurodegeneration and also neuronal death by apoptosis	substantially prevents neuronal death by necrosis
